{"source": "ChEMBL document CHEMBL3758137", "about": "(Eur J Med Chem, 2016)", "key": {"[1]": {"experiment": "Efflux ratio of apparent permeability from basolateral to apical side over apical to basolateral side in human Caco2 cells after 35 to 95 mins by LC-MS/MS analysis", "type": "ADME, cell-based", "conditions": "Caco-2"}, "[2]": {"experiment": "Intrinsic clearance in mouse liver microsomes at 0.1 uM after 7 to 60 mins by LC-MS/MS analysis", "type": "ADME"}, "[3]": {"experiment": "AUC (0 to 8 hrs) in mouse plasma at 10 mg/kg, po", "type": "ADME, organism-based", "set-up": "dose 10 mg/kg, time < 8 hr, route oral"}, "[4]": {"experiment": "Antitumor activity against human EBC1 cells xenografted in nude mouse assessed as tumor growth inhibition at 5 mg/kg, po qd administered for 21 days relative to control", "type": "functional", "conditions": "EBC-1, po, 504 h, read-out: TGI"}, "[5]": {"target": "Hepatocyte growth factor receptor (Homo sapiens, UniProt P08581)", "sequence (P08581 whole entry)": "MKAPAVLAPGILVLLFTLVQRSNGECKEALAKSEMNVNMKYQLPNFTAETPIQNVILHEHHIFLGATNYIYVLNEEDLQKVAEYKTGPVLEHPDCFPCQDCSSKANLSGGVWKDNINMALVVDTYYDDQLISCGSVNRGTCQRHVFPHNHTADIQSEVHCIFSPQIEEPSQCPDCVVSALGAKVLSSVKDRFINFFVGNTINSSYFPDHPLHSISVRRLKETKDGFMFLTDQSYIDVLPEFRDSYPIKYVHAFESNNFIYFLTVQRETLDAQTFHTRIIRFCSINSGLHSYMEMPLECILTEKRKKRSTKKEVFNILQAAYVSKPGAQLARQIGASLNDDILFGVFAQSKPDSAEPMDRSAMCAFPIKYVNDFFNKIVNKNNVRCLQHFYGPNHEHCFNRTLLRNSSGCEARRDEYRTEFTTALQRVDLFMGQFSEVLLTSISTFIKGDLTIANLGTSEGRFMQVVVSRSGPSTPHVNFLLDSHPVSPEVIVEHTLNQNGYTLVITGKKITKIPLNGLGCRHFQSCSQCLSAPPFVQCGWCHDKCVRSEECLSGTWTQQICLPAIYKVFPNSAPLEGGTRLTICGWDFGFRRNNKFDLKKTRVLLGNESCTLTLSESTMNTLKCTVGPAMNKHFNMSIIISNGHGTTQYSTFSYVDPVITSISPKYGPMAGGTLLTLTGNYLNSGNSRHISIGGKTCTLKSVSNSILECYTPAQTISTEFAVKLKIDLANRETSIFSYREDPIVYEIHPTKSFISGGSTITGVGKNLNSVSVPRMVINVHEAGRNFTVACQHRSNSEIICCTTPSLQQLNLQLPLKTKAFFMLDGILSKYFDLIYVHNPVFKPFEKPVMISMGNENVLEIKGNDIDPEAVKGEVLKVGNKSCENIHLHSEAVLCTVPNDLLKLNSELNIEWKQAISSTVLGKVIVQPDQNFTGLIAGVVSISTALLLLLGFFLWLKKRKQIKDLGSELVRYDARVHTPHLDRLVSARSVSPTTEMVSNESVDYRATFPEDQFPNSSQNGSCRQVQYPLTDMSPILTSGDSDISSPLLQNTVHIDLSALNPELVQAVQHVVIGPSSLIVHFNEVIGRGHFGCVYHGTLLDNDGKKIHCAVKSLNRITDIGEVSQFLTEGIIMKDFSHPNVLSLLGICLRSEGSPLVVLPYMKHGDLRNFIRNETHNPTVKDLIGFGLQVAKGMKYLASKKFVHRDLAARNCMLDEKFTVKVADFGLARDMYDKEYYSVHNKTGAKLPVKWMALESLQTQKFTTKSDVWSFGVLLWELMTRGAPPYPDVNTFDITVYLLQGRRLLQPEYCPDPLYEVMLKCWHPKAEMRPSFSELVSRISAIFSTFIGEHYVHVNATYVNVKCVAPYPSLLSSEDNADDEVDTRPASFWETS", "experiment": "Inhibition of recombinant c-Met (unknown origin) using poly (Glu,Tyr)4:1 as substrate after 60 mins by ELISA"}, "[6]": {"target": "Insulin-like growth factor 1 receptor (Homo sapiens, UniProt P08069)", "sequence (P08069 31-736 limits assumed)": "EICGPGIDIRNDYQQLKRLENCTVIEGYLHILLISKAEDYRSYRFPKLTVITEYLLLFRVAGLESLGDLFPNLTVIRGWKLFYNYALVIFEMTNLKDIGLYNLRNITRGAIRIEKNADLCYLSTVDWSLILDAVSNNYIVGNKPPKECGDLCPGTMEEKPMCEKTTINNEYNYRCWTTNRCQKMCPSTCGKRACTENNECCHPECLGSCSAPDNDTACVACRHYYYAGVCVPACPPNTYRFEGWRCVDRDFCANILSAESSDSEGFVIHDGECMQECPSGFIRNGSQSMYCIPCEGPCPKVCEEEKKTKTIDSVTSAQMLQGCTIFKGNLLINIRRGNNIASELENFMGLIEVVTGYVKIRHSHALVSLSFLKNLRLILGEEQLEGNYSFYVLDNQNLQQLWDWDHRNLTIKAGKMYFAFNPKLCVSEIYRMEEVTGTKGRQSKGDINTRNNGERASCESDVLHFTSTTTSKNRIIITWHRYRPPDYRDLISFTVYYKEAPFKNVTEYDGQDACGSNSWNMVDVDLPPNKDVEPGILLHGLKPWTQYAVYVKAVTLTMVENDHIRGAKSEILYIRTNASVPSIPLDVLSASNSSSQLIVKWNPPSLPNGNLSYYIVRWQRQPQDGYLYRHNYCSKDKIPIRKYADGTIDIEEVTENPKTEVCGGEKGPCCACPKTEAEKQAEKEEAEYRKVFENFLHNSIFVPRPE", "sequence (P08069 741-1367 limits assumed)": "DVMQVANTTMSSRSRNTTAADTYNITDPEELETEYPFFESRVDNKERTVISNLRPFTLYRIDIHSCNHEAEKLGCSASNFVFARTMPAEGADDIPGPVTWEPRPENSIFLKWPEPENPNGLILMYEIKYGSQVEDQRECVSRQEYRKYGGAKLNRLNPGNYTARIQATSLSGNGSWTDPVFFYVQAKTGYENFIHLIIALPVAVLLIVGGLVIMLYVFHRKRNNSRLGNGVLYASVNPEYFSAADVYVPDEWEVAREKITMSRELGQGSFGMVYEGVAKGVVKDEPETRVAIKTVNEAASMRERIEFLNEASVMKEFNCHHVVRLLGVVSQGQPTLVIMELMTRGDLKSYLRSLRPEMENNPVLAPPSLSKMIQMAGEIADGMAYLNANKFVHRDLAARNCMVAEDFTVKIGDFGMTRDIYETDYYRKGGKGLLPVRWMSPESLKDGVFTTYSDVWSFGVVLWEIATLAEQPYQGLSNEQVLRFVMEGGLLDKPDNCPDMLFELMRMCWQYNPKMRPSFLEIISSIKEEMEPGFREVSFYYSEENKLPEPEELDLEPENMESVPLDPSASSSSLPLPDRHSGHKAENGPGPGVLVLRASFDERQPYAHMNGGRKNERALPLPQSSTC", "experiment": "Inhibition of recombinant human IGF1R using poly (Glu,Tyr)4:1 as substrate after 60 mins by ELISA"}}, "data": [{"smiles": "Cn1cc(-c2cnc(Nc3cccc(Cn4nc(-c5cnn(C)c5)ccc4=O)c3)nc2)cn1", "values": [{"measurement": "efflux ratio", "setting": "[1]", "value": 1.3}, {"measurement": "CLH", "setting": "[2]", "value": 16, "unit": "mL/min/g"}, {"measurement": "AUC(0-t) at 8 h", "setting": "[3]", "value": 1750, "unit": "ng·h/mL"}, {"measurement": "inhibition in vivo at 5 mg/kg", "setting": "[4]", "value": 42.5, "unit": "%"}, {"measurement": "IC50", "setting": "[5]", "value": 7.5, "unit": "nM"}, {"measurement": "IC50", "setting": "[6]", "value": "> 1000", "unit": "nM"}]}]}
